Consider 1 compound from US12215133B2 (BrightGene Bio-Medical Technology Co., Ltd., priority 2021, dated 2025).

Assay [1] addresses T1, GIP receptor (Homo sapiens, UniProt P48546).
T1 construct: expressed in transfected cells; host or cells: CHO cell line
T1 sequence (P48546 22-466): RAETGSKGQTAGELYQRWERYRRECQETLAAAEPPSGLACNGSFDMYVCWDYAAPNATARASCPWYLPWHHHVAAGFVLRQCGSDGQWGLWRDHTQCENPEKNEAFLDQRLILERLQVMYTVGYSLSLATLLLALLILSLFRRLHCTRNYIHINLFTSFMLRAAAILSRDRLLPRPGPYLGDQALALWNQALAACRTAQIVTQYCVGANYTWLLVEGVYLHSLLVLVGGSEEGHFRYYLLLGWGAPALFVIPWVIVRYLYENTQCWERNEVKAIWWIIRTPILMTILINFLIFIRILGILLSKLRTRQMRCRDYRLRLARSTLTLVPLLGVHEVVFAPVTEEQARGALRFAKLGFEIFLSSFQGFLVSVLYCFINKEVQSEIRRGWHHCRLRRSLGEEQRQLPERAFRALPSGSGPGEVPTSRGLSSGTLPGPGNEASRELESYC
The assay can be described thus: cAMP experiment, GIP receptor (CHO host cell line). It counts as cell-based. The note with it: CHO host cells.

For assay [2], the system named is db/db mice. The assay is described as follows: Hypoglycemic effect of BG121 and BG128 in db/db mice (Experimental Example 2). In kind it is in vivo. Conditions: for glycosylated hemoglobin content in serum vs solvent control / insulin content in serum vs solvent control: 25 days after administration; for glycosylated hemoglobin content in serum vs solvent control: FIG. 6; for insulin content in serum vs solvent control: FIG. 7; for body weight vs solvent control: day 4, 7, 10, 13, 16, 19, 22, FIG. 5; for non-fasting blood glucose vs solvent control: FIG. 3. How it is done:
Germline: BKS mice (db/db mice); source: Gempharmatech Co., Ltd.; license key: SCXK (SU) 2018-0008; certificate number: 202100117; grade: SPF; number: 32; gender: male; age: 8 weeks (at the beginning of modeling); animal identification: ear tag.
Feeding conditions: temperature: 22±2° C.; humidity: 40%-70%; lighting: artificial lighting simulates day and night changes; drinking water: free to drink; feed: mouse breeding feed, wherein the mice were fasted overnight before determining fasting blood sugar, and the mice were free to eat for the rest of the time.
Formulation of BG128 (1 mg/ml) stock solution: a certain amount of BG128 was weighed, an appropriate volume of solvent (20 mM citric acid, pH 7.0) was added, and the mixture was sub-packaged at 100 μl/tube and frozen at −80° C. for later use;
BG128 (0.0151 mg/ml, for 30 nmol/kg administration): 90 μL of the 1 mg/mL stock solution was taken and added to a 10 mL EP together with 810 μL of the solvent, the mixture was homogeneously mixed in a vortex mixer, then 5044 μL of the solvent was added, and the mixture was homogeneously mixed in a vortex mixer and used up on the same day;
BG128 (0.0050 mg/ml, for 10 nmol/kg administration): 2 mL of BG128 ([…]) were taken, and 4 mL of the solvent was added, and the mixture was homogeneously mixed in a vortex mixer and used up on the same day.
32 SPF-grade male BKS-DB mice (db/db mice) were fed adaptively for 1 week. […] During the experiment, the experimenters need to observe the signs and health conditions of the experimental animals. Any abnormal manifestations of animals, such as pain, depression, decreased activity, etc., should be recorded in the original experimental records. If the abnormal manifestations of the experimental animals exceed the regulations in relevant documents for animal welfare, the animal can be euthanized after being notified.
Modeling method: db/db mice would develop spontaneous type 2 diabetes after being fed for 6 weeks, and the mice would develop symptoms, such as obesity, insulin resistance and hyperglycemia;
Mode of administration: it was intended to use subcutaneous injection by the clinical route of administration, the volume of administration is: 10 mL/kg, once every 3 days, for 22 consecutive days;
Fasting blood glucose determination: according to the above-mentioned animal grouping and administration dose, the fasting blood glucose of the mice was determined two days before the first administration and the body weight was determined. […] The fasting blood glucose levels were determined on day 7, 13, 19, and 25 after the first administration (changing the bedding and fasting before the fasting blood glucose determination), and the mice were fasted;
Non-fasting blood glucose determination: the blood glucose was determined at time points of 1, 3, 6, 24, 48, and 72 hours after the first administration;
Body weight determination: determined twice a week;
Food intake determination: determined twice a week.
After 25 days of administration, blood samples were collected by picking the eyeballs, and the serum insulin and glycosylated hemoglobin contents of the mice were determined respectively.
All reported determination data was calculated using GraphPad prism8.0 software for group mean and standard deviation.

The target in assay [3] is T2, GLP-1 receptor (Homo sapiens, UniProt P43220).
T2 construct: expressed in transfected cells; host or cells: HEK293 cell line
The assay is described as follows: cAMP experiment, GLP-1 receptor (HEK293 host cell line). Conditions: HEK293 host cells. In kind it is cell-based.

Where [4] appears, read: 10 nmol/kg s.c. once every 3 days.
Setting [5] is: 30 nmol/kg s.c. once every 3 days.

T2 sequence (P43220 24-463, species assumed): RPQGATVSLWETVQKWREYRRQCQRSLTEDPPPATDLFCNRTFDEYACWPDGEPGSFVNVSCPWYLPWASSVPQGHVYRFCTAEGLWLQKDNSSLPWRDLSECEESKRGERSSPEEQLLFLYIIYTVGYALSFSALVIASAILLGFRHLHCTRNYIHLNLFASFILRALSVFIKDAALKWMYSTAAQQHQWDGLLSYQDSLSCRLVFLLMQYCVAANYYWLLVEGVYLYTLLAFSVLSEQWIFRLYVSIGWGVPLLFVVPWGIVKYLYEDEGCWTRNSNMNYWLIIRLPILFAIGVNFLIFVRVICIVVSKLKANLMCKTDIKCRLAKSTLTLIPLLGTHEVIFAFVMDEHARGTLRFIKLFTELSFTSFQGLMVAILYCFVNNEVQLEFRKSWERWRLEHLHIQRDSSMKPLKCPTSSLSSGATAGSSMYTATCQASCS

As for `CNC(CCCCNC(=O)COCCOCCOCCNC(=O)COCCOCCOCCNC(=O)CCC(NC(=O)CC(=O)O)C(=O)O)C(N)=O` (centres unmarked) [BG128], the figures for the EC50 in assay [1] and in assay [3] were 0.279 nM and 0.11 nM, respectively. Besides, the “glycosylated hemoglobin content in serum vs solvent control” value in assay [2] (setting [4]) was “no significant difference”; in assay [2] (setting [5]), “significantly lower than that in the BG121 (30 nmol/kg) administration group and the solvent control group”. Further, the “insulin content in serum vs solvent control” value in assay [2] (setting [4]) and in assay [2] (setting [5]) was “significantly lower than that in the solvent control group” each time. Also, the “body weight vs solvent control” value in assay [2] (setting [4]) was “no significant difference”; in assay [2] (setting [5]), “significantly lower than that in the solvent control group and the BG121 (30 nmol/kg) administration group”. Also, the “non-fasting blood glucose vs solvent control” value in assay [2] (10 nmol/kg s.c., 1, 3, 6, 24, 48 and 72 h after first administration) is listed as “reduce the blood glucose at each time point after the administration in a dose dependent manner”; in assay [2] (30 nmol/kg s.c., 1, 3, 6, 24, 48 and 72 h after first administration) it was “reduce the blood glucose at each time point after the administration in a dose dependent manner”. Also, the “fasting blood glucose vs solvent control” value in assay [2] (30 nmol/kg s.c. once every 3 days, day 19 and 25 after first administration, FIG. 4) is “significantly reduce the fasting blood glucose level”.

Usually EC50 stands for the concentration needed to bring the measured effect to its halfway point.
